Where two headings read alike, the source gives them in different places.
Legend:
Format in all cases: biochemical
δ opioid receptor = target: T1, δ opioid receptor (Homo sapiens, UniProt P41143); assay: Inhibition of DPDPE-stimulated [35S]GTPγS binding
T1 construct: expressed in transfected cells

μ opioid receptor = target: T2, μ opioid receptor (Homo sapiens, UniProt P35372); assay: Inhibition of DAMGO-stimulated [35S]GTPγS binding
T2 construct: expressed in transfected cells

κ opioid receptor = target: T3, κ opioid receptor (Homo sapiens, UniProt P41145); assay: Inhibition of U69,593-stimulated [35S]GTPγS binding; conditions: for δ/κ (selectivity for κ relative to δ): ratio of Ke values δ/κ; for δ/κ (selectivity for κ relative to δ) / μ/κ (selectivity for κ relative to μ): fold; for μ/κ (selectivity for κ relative to μ): ratio of Ke values μ/κ
T3 construct: expressed in transfected cells

[1] = cloned human κ receptor, agonist U69,593, [35S]GTPγS binding, read-out: κ, U69,593 Ke
[2] = cloned human μ receptor, agonist DAMGO, [35S]GTPγS binding, read-out: μ, DAMGO Ke
[3] = cloned human δ receptor, agonist DPDPE, [35S]GTPγS binding, read-out: δ, DPDPE Ke

T1 sequence (P41143 whole entry): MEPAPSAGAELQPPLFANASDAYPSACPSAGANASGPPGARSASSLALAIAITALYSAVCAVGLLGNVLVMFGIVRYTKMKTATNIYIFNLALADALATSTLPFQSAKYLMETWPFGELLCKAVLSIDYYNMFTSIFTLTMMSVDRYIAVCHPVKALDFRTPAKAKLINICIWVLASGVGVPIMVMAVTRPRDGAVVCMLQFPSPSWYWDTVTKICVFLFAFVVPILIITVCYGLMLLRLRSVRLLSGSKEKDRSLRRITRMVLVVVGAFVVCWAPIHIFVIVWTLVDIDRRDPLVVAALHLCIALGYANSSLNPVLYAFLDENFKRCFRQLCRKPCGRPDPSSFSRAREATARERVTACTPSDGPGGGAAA
T3 sequence (P41145 whole entry): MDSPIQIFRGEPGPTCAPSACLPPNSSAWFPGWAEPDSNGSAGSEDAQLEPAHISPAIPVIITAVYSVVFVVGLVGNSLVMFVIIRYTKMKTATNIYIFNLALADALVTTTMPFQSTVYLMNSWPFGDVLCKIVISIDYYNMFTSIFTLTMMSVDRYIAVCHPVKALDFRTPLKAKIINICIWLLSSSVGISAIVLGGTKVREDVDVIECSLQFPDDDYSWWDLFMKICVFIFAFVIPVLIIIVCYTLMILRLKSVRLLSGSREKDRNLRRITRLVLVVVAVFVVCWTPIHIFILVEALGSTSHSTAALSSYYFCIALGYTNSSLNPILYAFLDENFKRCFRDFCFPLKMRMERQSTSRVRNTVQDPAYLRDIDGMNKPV
T2 sequence (P35372 whole entry): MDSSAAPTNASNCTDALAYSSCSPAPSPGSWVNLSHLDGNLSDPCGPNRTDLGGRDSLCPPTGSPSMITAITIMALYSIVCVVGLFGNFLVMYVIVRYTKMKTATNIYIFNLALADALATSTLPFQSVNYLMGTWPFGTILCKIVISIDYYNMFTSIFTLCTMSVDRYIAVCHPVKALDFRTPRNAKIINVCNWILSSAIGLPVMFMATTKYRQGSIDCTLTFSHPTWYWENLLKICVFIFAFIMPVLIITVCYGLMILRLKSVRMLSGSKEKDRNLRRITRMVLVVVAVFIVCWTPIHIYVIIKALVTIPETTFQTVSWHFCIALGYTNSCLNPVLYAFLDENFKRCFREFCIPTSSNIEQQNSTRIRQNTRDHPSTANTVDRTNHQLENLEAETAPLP

SMILES	δ/κ (selectivity for κ relative to δ) (κ opioid receptor)	μ/κ (selectivity for κ relative to μ) (κ opioid receptor)	Kb (κ opioid receptor; [1])	Kb (μ opioid receptor; [2])	Kb (δ opioid receptor; [3])	other results
CC(C)[C@@H](CN1CCCCC1)NC(=O)[C@H]1Cc2ccc(O)cc2CN1 [Compound 3, (3R)-7-Hydroxy-N-[(1S)-2-methyl-1-(piperidin-1-ylmethyl)propyl]-1,2,3,4-tetrahydroisoquinoline-3-carboxamide]						Kb (δ opioid receptor): > 3000 nM
CC(C)[C@@H](CO)NC(=O)[C@H]1Cc2ccc(O)cc2CN1 [Compound 4, (3R)-7-Hydroxy-N-[(1S)-1-(hydroxymethyl)-2-methylpropyl]-1,2,3,4-tetrahydroisoquinoline-3-carboxamide]	>76	>76				Kb (μ opioid receptor): > 3000 nM; Kb (δ opioid receptor): > 3000 nM; Kb (κ opioid receptor; κ, U69,593 Ke, cloned human κ receptor, agonist U69,593, [35S]GTPγS binding): 39.1 ± 3.8 nM
CC(C)[C@@H](CN1CCOCC1)NC(=O)[C@H]1Cc2ccc(O)cc2CN1 [Compound 5, (3R)-7-Hydroxy-N-[(1S)-2-methyl-1-(morpholin-4-ylmethyl)propyl]-1,2,3,4-tetrahydroisoquinoline-3-carboxamide]			396 ± 140 nM			
CC(C)[C@@H](CN1CCC(C)(C)CC1)NC(=O)[C@H]1Cc2ccc(O)cc2CN1 [Compound 9, (3R)—N-{(1S)-1-[(4,4-Dimethylpiperidin-1-yl)methyl]-2-methylpropyl}-7-hydroxy-1,2,3,4-tetrahydroisoquinoline-3-carboxamide]	405	68	2.09 ± 0.42 nM	142 nM	847 nM	
CC(C)CN(CC(C)C)C[C@@H](NC(=O)[C@H]1Cc2ccc(O)cc2CN1)C(C)C [Compound 10, (3R)—N-{(1S)-1-{[Bis(2-methylpropyl)amino]methyl}-2-methylpropyl]-7-hydroxy-1,2,3,4-tetrahydroisoquinoline-3-carboxamide]			137 ± 24 nM			
CCN(CC)C[C@@H](NC(=O)[C@H]1Cc2ccc(O)cc2CN1)C(C)C [Compound 11, (3R)—N-{(1S)-1-[(4,4-Diethylamino)methyl]-2-methylpropyl]-7-hydroxy-1,2,3,4-tetrahydroisoquinoline-3-carboxamide]	>72	16.5			>3000 nM	μ, DAMGO Ke (μ opioid receptor; cloned human μ receptor, agonist DAMGO, [35S]GTPγS binding): 690 ± 110 nM; κ, U69,593 Ke (κ opioid receptor; cloned human κ receptor, agonist U69,593, [35S]GTPγS binding): 41.8 ± 12 nM
CC(C)[C@@H](CN1CCCCC1C)NC(=O)[C@H]1Cc2ccc(O)cc2CN1 (stereo partly drawn) [Compound 12, (3R)-7-Hydroxy-N-{(1S)-2-methyl-1-[(2-methylpiperidin-1-yl)methyl]propyl}-1,2,3,4-tetrahydroisoquinoline-3-carboxamide]	199	3	15.1 ± 4.2 nM	44.9 ± 11 nM		
COC1CCN(C[C@@H](NC(=O)[C@H]2Cc3ccc(O)cc3CN2)C(C)C)CC1 [Compound 13, (3R)-7-Hydroxy-N-{(1S)-2-methyl-1-[(4-methoxypiperidin-1-yl)methyl]propyl}-1,2,3,4-tetrahydroisoquinoline-3-carboxamide]	>459	30	6.53 ± 1.8 nM	198 ± 48 nM		
CC(C)[C@@H](CN1CCC(C(F)(F)F)CC1)NC(=O)[C@H]1Cc2ccc(O)cc2CN1 [Compound 14, (3R)-7-Hydroxy-N-[(1S)-2-methyl-1-{[4-(trifluoromethyl)piperidin-1-yl]methyl}propyl]-1,2,3,4-tetrahydroisoquinoline-3-carboxamide]	>640	14	4.69 ± 0.29 nM	67.9 ± 12 nM		
CC(C)[C@@H](CN1CCN(C)CC1)NC(=O)[C@H]1Cc2ccc(O)cc2CN1 [Compound 19, (3R)-7-Hydroxy-N-{(1S)-2-methyl-1-[(4-methylpiperizin-1-yl)methyl]propyl}-1,2,3,4-tetrahydroisoquinoline-3-carboxamide]	>333	9	98.8 ± 28 nM	915 ± 303 nM		
CC(C)[C@@H](CN1CCC(C(N)=O)CC1)NC(=O)[C@H]1Cc2ccc(O)cc2CN1 [Compound 22]	932	43	3.22 ± 0.78 nM	129 ± 26 nM		
CCC1CCN(C[C@@H](NC(=O)[C@H]2Cc3ccc(O)cc3CN2)C(C)C)CC1 [Compound 24, (3R)—N-{(1S)-1-[(4-Ethylpiperidin-1-yl)methyl]-2-methylpropyl}-7-hydroxy-1,2,3,4-tetrahydroisoquinoline-3-carboxamide]	1004	30	2.48 ± 0.7 nM	74.8 ± 23 nM	2490 ± 620 nM	
CC1CCN(C[C@H](C(C)C)N(C)C(=O)[C@H]2Cc3ccc(O)cc3CN2)CC1 [Compound 30, (3R)-7-Hydroxy-N-methyl-N-{(1S)-2-methyl-1-[(4-methylpiperidin-1-yl)methyl]propyl}-1,2,3,4-tetrahydroisoquinoline-3-carboxamide]	34	4.6	88.4 ± 17 nM		> 3000 nM	Kb (μ opioid receptor): 406 ± 86 nM
CC(C)[C@@H](CN1CCC(C#N)CC1)NC(=O)[C@H]1Cc2ccc(O)cc2CN1 [Compound 39, (3R)—N-{(1S)-1-[(4-Cyanopiperidin-1-yl)methyl]-2-methylprolyl}-7-hydroxy-1,2,3,4-tetrahydroisoquinoline-3-carboxamide]	>236	51	12.7 ± 3.1 nM	647 ± 150 nM		
CC(C)[C@@H](CC1CCCC1)NC(=O)[C@H]1Cc2ccc(O)cc2CN1 [Compound 40, (3R)—N-[(1R)-1-(Cyclopentylmethyl)-2-methylpropyl]-7-hydroxy-1,2,3,4-tetrahydroisoquinoline-3-carboxamide]				344 ± 100 nM	1570 ± 380 nM	
CC1CCN(C[C@H](C(C)C)N(C)C[C@H]2Cc3ccc(O)cc3CN2)CC1 [Compound 53, (3R)-3-[(Methyl{(1S)-2-methyl-1-[(4-methylpiperidin-1-yl)methyl]propyl}amino)methyl]-1,2,3,4-tetrahydroisoquinolin-7-ol]	>163	35	18.4 ± 2 nM		> 3000 nM	Kb (μ opioid receptor): 647 ± 150 nM
CC(C)[C@@H](CN1CCC(F)(F)CC1)NC(=O)[C@H]1Cc2ccc(O)cc2CN1 [Compound 54, (3R)—N-{[(1S)-1-[4,4-Difluoropiperidin-1-yl]methyl]-2-methylpropyl}-7-hydroxy-1,2,3,4-tetrahydroisoquinoline-3-carboxamide]	>254	51	11.8 ± 3 nM	604 ± 83 nM		
O=C(NCCc1ccccc1)[C@H]1Cc2ccc(O)cc2CN1 [Compound 56, (3R)-7-Hydroxy-N-(2-phenylethyl)-1,2,3,4-tetrahydroisoquinoline-3-carboxamide]					> 3000 nM	Kb (μ opioid receptor): 277 ± 77 nM
CC(C)[C@@H](CN1CCC(N(C)C)CC1)NC(=O)[C@H]1Cc2ccc(O)cc2CN1 [Compound 58, (3R)—N-[(1S)-1-{[4-(Dimethylamino)piperidin-1-yl]methyl}-2-methylpropyl]-7-hydroxy-1,2,3,4-tetrahydroisoquinoline-3-carboxamide]	>371	39	8.08 ± 1.2 nM	318 ± 8.4 nM		
CC(C)[C@@H](CN1CCC(C(F)F)CC1)NC(=O)[C@H]1Cc2ccc(O)cc2CN1 [Compound 59, (3R)—N-[(1S)-1-{[4-(Difluoromethyl)piperidin-1-yl]methyl}-2-methylpropyl]-7-hydroxy-1,2,3,4-tetrahydroisoquinoline-3-carboxamide]			3.45 ± 1.2 nM	70.9 ± 9.4 nM		
CC1CCC(C[C@@H](NC(=O)[C@H]2Cc3ccc(O)cc3CN2)C(C)C)CC1 (stereo partly drawn) [Compound 66, (3R)-7-Hydroxy-N-{(1R)-2-methyl-1-[(4-methylcyclohexyl)methyl]propyl}-1,2,3,4-tetrahydroisoquinoline-3-carboxamide]				221 ± 41 nM		
